Assay results as given in patent publication US20030134413A1, “Cell production” (priority 2000, published 2003).

Key:
Format in all cases: cell-based, mouse
ES cells [1] = test: Morphology of ES cell aggregates in suspension culture; settings: medium supplemented with 100 units of LIF; data not shown
Experimental: (§1) All cell aggregates were formed from single cell suspensions (1×10^5 cells/ml) of ES or EPL cells cultured in bacterial petri dishes. ES cell and EPL cell embryoid bodies (EB and EPLEB respectively) were formed as described in Lake et al. (2000). EBM, cell aggregates formed and maintained in MEDII, were formed from ES cells aggregated in IC:DMEM (DMEM (Gibco BRL #12800) with 10% foetal calf serum (FCS; Commonwealth Serum Laboratories), […] gentamycin, 1 mM L-glutamine and 0.1 mM B-mercaptoethanol (B-ME)) supplemented with 50% MEDII. Aggregates were divided 1 in 2 on days 2 and 4, and medium was changed on days 2 and 4 and then daily until collection. […] The time in days from formation of aggregates was denoted by superscript with the day of formation denoted as day 0. For example, EBM 5 days after formation are represented as EBM^5.
For continued suspension culture of EB and EBM, aggregates on day 7 were transferred to serum free medium (50% DMEM, 50% Hams F12 (Gibco BRL # 11765) supplemented with 1× ITSS supplement (Boehringer Mannhiem) and 10 ng/ml FGF2 (Peprotech Inc.)).
EB^4 and EBM^4 were fixed with 4% PFA for 30 minutes before embedding in paraffin wax and sectioning as described in Hogan et al., 1994. 7 μm sections were stained with haematoxylin:eosin as described by Kaufman, 1992 or with Hoescht […] (5 μg/ml) in PBS; Sigma) for 5 minutes.

EBM^9 explants = test: Neural crest formation from EBM^9 explants
Experimental: Sox 10 probes were transcribed from pSox10E.1 (obtained from Dr. Peter Koopman, IMB, Brisbane, Australia). Anti-sense and sense probes were transcribed from HindIII or BamHI cut pSox10E.1 with […] or T3 RNA polymerase respectively.
EBM^9 were collected, washed in PBS, treated with 0.5 mM EGTA pH 7.5 for 3 minutes, washed in PBS and disaggregated to small clumps (20-200 cells) by trituration. Cell clumps were allowed to settle and single cells liberated during trituration were removed with the supernatant before plating onto tissue culture grade plasticware which had been coated with cellular fibronectin (1 μg/cm^2; obtained from M. D. Bettess, Department of Biochemistry, Adelaide University, Australia) and allowed to dry. Cells were cultured in Hams F12 containing 3% FCS and 10 ng/ml FGF2 and supplemented with either 0.1% 25 μM staurosporine (Sigma) in DMSO (final concentration, 25 nM) or 0.1% DMSO. Cellular aggregates were allowed to differentiate for 48 hours before fixation in 4% PFA for 30 minutes.

ES cells [2] = test: Differentiation potential of seeded ES cell aggregates (neurons, beating cardiocytes); settings: 10-20 ng/ml added to the medium from day 4
Experimental: as §1
For adherent culture, aggregates were seeded onto gelatin treated tissue culture grade plasticware (Falcon) on day 7 of development in 500 μl DMEM supplemented with 10% FCS (Commonwealth serum Laboratories). […]
EB^7 and EBM^7 were seeded as described above and assessed on days 8, 10, 12 and 14 for the presence of neurons, identified morphologically by the presence of axonal projections (and confirmed by the expression of NF200; data not shown), and beating cardiocytes, identified morphologically by rhythmical contraction of cells within the aggregate.

For “LIF: cytokine leukaemia inhibitory factor”, the “morphology and gene expression profile of ES cell aggregates” value (ES cells [1]) was “did not duplicate the morphology or gene expression profile of EBM”.

`CN[C@@H]1C[C@H]2O[C@@](C)([C@@H]1OC)n1c3ccccc3c3c4c(c5c6ccccc6n2c5c31)C(=O)NC4` [staurosporine] was tested, and the “Sox10 expression by in situ hybridisation” value (EBM^9 explants; 25 nM, 48 hours culture) was “observed in all cells”, the “morphology of EBM explants” value (EBM^9 explants; 25 nM, within three hours of seeding) was “surrounded by a halo of differentiating cells” and the “concentration required for uniform differentiation” value (EBM^9 explants; data not shown) was “greater than 10 nM”.

B1: FGF4: growth factor from the FGF family (protein, UniProt P08620 31-206, looked up)
Fibroblast growth factor 4: APTAPNGTLEAELERRWESLVALSLARLPVAAQPKEAAVQSGAGDYLLGIKRLRRLYCNVGIGFHLQALPDGRIGGAHADTRDSLLELSPVERGVVSIFGVASRFFVAMSSKGKLYGSPFFTDECTFKEILLPNNYNAYESYKYPGMFIALSKNGKTKKGNRVSPTMKVTHFLPRL
B1 was tested, and the “influence on the outcome of differentiation” value (ES cells [2]) was “did not influence the outcome of differentiation”.
